According to PubChem BioAssay AID256 (DTP/NCI, 2004):
Several values for one entry are separate records, joined by “and”; a condition that tells them apart may be missing. Equal values may be shown once. Inconclusive results and toxic doses are left out. Rule for the calls: active = survival T/C of 150% or more; inactive = T/C below 125% in these data.

Test system: CD2F1 mice, L1210 leukemia ip, survival T/C
Experiment: NCI In Vivo Anticancer Drug Screen. Data for tumor model L1210 Leukemia (intraperitoneal) in CD2F1 (CDF1) mice
Details: endpoint: mean survival time, higher = longer survival
In short: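 Vehicle-treated tumor-bearing mice served as controls (C) for compound-treated mice (T). Reported figure is T divided by C.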

[1] = dose: 100.0 mg/kg/injection, schedule: Q01DX001 (ip), vehicle: saline
[2] = dose: 100.0 mg/kg/injection, schedule: Q04DX003 (ip), vehicle: saline with Tween-80
[3] = dose: 200.0 mg/kg/injection, schedule: Q01DX009 (ip), vehicle: saline with Tween-80
[4] = dose: 200.0 mg/kg/injection, schedule: Q04DX003 (ip), vehicle: saline with Tween-80
[5] = dose: 100.0 mg/kg/injection, schedule: Q01DX009 (ip), vehicle: saline
[6] = dose: 50.0 mg/kg/injection, schedule: Q01DX009 (ip), vehicle: Klucel (hydroxypropylcellulose) (HPC)
[7] = dose: 100.0 mg/kg/injection, schedule: Q01DX009 (ip), vehicle: Klucel (hydroxypropylcellulose) (HPC)
[8] = dose: 200.0 mg/kg/injection, schedule: Q01DX009 (ip), vehicle: Klucel (hydroxypropylcellulose) (HPC)
[9] = dose: 100.0 mg/kg/injection, schedule: Q04DX002 (ip), vehicle: saline with Tween-80
[10] = dose: 200.0 mg/kg/injection, schedule: Q04DX002 (ip), vehicle: saline with Tween-80
[11] = dose: 400.0 mg/kg/injection, schedule: Q04DX002 (ip), vehicle: saline with Tween-80

Measured: T/C

N=C(N)SCc1ccccc1
inactive: dose: 6.25 mg/kg/injection, schedule: Q04DX003 (ip), vehicle: saline with Tween-80 114 % of control | dose: 12.5 mg/kg/injection, schedule: Q01DX009 (ip), vehicle: saline with Tween-80 94 % of control | dose: 12.5 mg/kg/injection, schedule: Q04DX003 (ip), vehicle: saline with Tween-80 100 % of control | dose: 25.0 mg/kg/injection, schedule: Q01DX001 (ip), vehicle: saline 93 % of control | dose: 25.0 mg/kg/injection, schedule: Q01DX009 (ip), vehicle: saline with Tween-80 96 % of control | dose: 25.0 mg/kg/injection, schedule: Q04DX003 (ip), vehicle: saline with Tween-80 112 % of control | dose: 50.0 mg/kg/injection, schedule: Q01DX001 (ip), vehicle: saline 100 % of control | dose: 50.0 mg/kg/injection, schedule: Q01DX009 (ip), vehicle: saline with Tween-80 93 % of control and 97 % of control | dose: 50.0 mg/kg/injection, schedule: Q04DX003 (ip), vehicle: saline with Tween-80 94 % of control and 97 % of control | [1] 96 % of control | [2] 100 % of control | [3] 86 % of control | [4] 95 % of control

S=c1nn[nH]n1-c1ccccc1
inactive: [5] 103 % of control | dose: 200.0 mg/kg/injection, schedule: Q01DX009 (ip), vehicle: saline 109 % of control

CCOC(=O)C1(C(=O)OCC)CCC(OCC)N1C(=O)c1cc2c(cc1[N+](=O)[O-])OCO2 (stereo not given)
inactive: [6] 97 % of control | [7] 101 % of control | [8] 97 % of control

CC(C(=O)O)C1CCC2C3CC=C4CC(O)CCC4(C)C3CCC12C (stereo not given)
inactive: [2] 99 % of control | [4] 100 % of control | dose: 400.0 mg/kg/injection, schedule: Q04DX003 (ip), vehicle: saline with Tween-80 100 % of control

O=C(C1CC1)N1CCC(O)(c2ccccc2)CC1
inactive: [9] 97 % of control | [10] 93 % of control | [11] 93 % of control

Oc1ccccc1C=NCc1ccccc1.Oc1ccccc1C=NCc1ccccc1.[Cu]
inactive: [9] 100 % of control | [10] 96 % of control | [11] 100 % of control

CCCCCCCCCCCCNC=O
inactive: dose: 25.0 mg/kg/injection, schedule: Q01DX009 (ip), vehicle: saline 100 % of control | dose: 50.0 mg/kg/injection, schedule: Q01DX009 (ip), vehicle: saline 103 % of control | [5] 106 % of control

CC(=O)/C=C/C=C\c1ccccc1
inactive: dose: 100.0 mg/kg/injection, schedule: Q01DX009 (ip), vehicle: saline with Tween-80 104 % of control | [3] 94 % of control | dose: 400.0 mg/kg/injection, schedule: Q01DX009 (ip), vehicle: saline with Tween-80 98 % of control

S
inactive: dose: 100.0 mg/kg/injection, schedule: Q04DX003 (ip), vehicle: Klucel (hydroxypropylcellulose) (HPC) 95 % of control | dose: 200.0 mg/kg/injection, schedule: Q04DX003 (ip), vehicle: Klucel (hydroxypropylcellulose) (HPC) 101 % of control | dose: 400.0 mg/kg/injection, schedule: Q04DX003 (ip), vehicle: Klucel (hydroxypropylcellulose) (HPC) 93 % of control

COc1ccc(-c2c(C(=O)O)cc(O)c3cc(OC)c(OC)cc23)cc1OC
inactive: [1] 97 % of control | dose: 200.0 mg/kg/injection, schedule: Q01DX001 (ip), vehicle: saline 97 % of control | dose: 400.0 mg/kg/injection, schedule: Q01DX001 (ip), vehicle: saline 92 % of control

C[Si](C)(C)OSc1ccccc1[N+](=O)[O-]
inactive: dose: 12.5 mg/kg/injection, schedule: Q01DX009 (ip), vehicle: Klucel (hydroxypropylcellulose) (HPC) 95 % of control | dose: 25.0 mg/kg/injection, schedule: Q01DX009 (ip), vehicle: Klucel (hydroxypropylcellulose) (HPC) 97 % of control | [6] 100 % of control | [7] 93 % of control | [8] 92 % of control | dose: 400.0 mg/kg/injection, schedule: Q01DX009 (ip), vehicle: Klucel (hydroxypropylcellulose) (HPC) 91 % of control

CCN(CC)C(=O)CSC#N
inactive: dose: 12.5 mg/kg/injection, schedule: Q01DX001 (ip), vehicle: Klucel (hydroxypropylcellulose) (HPC) 96 % of control | dose: 25.0 mg/kg/injection, schedule: Q01DX001 (ip), vehicle: Klucel (hydroxypropylcellulose) (HPC) 100 % of control

CC/C=N/NC(N)=S
inactive: dose: 5.0 mg/kg/injection, schedule: Q01DX001 (ip), vehicle: saline 98 % of control | dose: 10.0 mg/kg/injection, schedule: Q01DX001 (ip), vehicle: saline 102 % of control | dose: 20.0 mg/kg/injection, schedule: Q01DX001 (ip), vehicle: saline 106 % of control
